{
  "source": "paper PMC2119975",
  "about": "(The Journal of Cell Biology, 1994)",
  "key": {"[1]": {"tested_on": "HT1080 human fibrosarcoma cells", "assay": "Cell adhesion assay, HT1080 cells", "type": "cell-based", "details": "Fig. 7 B; coating and inhibitor 100 μM; EDTA 2 mM; cells preincubated"}, "type II alveolar cells": {"tested_on": "type II alveolar cells", "assay": "Alveolar inhibition studies on gelled BMS", "type": "cell-based, rat", "details": "Fig. 6; cells preincubated with peptide, up to 700 μM; day five; n = 9"}},
  "data": [
    {"compound": "O=C(O)CN(CCN(CC(=O)O)CC(=O)O)CC(=O)O", "note": "[EDTA]", "values": [
      {"measurement": "Inhibition of HT1080 cell adhesion to SN-peptide", "setting": "[1]", "value": "inhibited"}
    ]},
    {"compound": "FGNMGS", "values": [
      {"measurement": "Effect of tryptic peptides of SN-peptide on alveolar formation", "setting": "type II alveolar cells", "value": "minimal"}
    ]},
    {"compound": "WHSIYITR", "values": [
      {"measurement": "Effect of tryptic peptides of SN-peptide on alveolar formation", "setting": "type II alveolar cells", "value": "partial"}
    ]}
  ]
}
